The record followed here is PMC4725312 (Journal of biomolecular screening, 2010).

The target of this assay is TRPM7 (Mus musculus, UniProt Q923J1). The assay is classed as cell-based.
Chain of TRPM7 (Q923J1 whole entry): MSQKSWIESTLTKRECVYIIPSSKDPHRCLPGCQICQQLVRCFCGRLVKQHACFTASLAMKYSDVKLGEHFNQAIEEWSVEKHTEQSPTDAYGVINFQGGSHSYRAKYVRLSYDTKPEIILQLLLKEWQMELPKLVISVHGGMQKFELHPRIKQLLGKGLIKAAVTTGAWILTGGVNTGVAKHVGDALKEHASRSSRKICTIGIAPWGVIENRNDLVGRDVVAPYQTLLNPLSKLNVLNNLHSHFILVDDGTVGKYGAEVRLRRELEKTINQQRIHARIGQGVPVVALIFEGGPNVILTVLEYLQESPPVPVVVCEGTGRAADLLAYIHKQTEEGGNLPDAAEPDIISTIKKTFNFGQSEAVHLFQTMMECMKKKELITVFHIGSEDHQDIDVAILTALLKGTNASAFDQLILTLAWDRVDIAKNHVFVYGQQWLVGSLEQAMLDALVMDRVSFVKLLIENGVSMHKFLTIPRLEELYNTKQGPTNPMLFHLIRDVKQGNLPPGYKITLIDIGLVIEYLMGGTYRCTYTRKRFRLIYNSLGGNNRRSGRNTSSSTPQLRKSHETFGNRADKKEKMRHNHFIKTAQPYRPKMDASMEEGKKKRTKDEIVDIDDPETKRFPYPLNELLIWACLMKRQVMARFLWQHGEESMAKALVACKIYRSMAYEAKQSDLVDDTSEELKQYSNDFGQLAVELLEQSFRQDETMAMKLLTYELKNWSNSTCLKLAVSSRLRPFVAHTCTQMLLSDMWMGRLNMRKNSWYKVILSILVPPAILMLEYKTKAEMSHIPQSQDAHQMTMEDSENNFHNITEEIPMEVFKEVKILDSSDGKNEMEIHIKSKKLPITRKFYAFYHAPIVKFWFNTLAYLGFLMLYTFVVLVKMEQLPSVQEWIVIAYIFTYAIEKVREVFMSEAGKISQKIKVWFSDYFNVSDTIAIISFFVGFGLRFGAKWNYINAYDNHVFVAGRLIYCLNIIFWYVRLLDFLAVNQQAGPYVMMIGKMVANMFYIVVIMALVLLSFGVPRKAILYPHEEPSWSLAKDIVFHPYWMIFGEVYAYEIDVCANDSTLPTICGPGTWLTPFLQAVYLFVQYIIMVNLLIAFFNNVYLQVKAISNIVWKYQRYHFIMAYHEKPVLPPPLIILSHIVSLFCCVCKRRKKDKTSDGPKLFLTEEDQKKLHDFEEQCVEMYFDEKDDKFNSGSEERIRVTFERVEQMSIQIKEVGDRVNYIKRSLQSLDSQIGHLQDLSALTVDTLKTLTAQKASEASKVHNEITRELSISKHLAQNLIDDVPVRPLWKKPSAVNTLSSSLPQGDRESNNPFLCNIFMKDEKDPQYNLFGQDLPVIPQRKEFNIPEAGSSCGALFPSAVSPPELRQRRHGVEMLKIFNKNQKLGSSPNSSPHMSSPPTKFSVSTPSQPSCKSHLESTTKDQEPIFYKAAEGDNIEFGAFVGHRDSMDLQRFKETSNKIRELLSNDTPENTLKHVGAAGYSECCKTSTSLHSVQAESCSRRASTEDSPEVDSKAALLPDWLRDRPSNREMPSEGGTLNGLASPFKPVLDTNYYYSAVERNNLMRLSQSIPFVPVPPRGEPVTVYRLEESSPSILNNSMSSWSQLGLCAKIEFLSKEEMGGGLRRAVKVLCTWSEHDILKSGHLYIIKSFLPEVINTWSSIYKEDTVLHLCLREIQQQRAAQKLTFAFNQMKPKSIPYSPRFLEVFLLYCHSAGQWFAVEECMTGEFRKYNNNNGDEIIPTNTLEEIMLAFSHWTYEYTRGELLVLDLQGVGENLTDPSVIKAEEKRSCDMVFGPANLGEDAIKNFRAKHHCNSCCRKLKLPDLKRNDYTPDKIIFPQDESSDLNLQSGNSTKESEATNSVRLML

For orientation: IC50 means the point on the concentration scale where inhibition reaches its midpoint. With `NCCOB(c1ccccc1)c1ccccc1` [2-APB], the IC50 was determined as 30 µM.
